Target: rBIIa/beta 1 sodium channels (Rattus norvegicus, UniProt P04775)
Test: Electrophysiological assay, two-electrode voltage clamp in Xenopus oocytes
Assay type: cell-based
Settings: apparent inhibition constant from single point inhibition data; inactivated-state voltage protocol; channels expressed in Xenopus oocytes; read-out: RBIIA/β1 Ki
Protocol: Electrophysiological Assay:
Electrophysiological Assay was used to measure potencies of compounds of the present invention rBIIa/beta 1 sodium channels expressed in Xenopus oocytes.
Preparation of cRNA encoding cloned rat brain type IIa (rBIIa) and beta 1 (β1): cDNA clones encoding the rat brain beta 1 subunit were cloned in house using standard methods, and mRNA were prepared by standard methods. mRNA encoding rBIIa was provided by Dr. A. Golden (UC Irvine). The mRNAs were diluted and stored at −80° C. in 1 μL aliquots until injection.
Preparation of oocytes: Mature female Xenopus laevis were anaesthetized (20-40 min) using 0.15% 3-aminobenzoic acid ethyl ester (MS-222) following established procedures (Woodward, R. M., et al., Mol. Pharmacol. 41:89-103 (1992)).
Two to six ovarian lobes were surgically removed. Oocytes at developmental stages V-VI were dissected from the ovary, oocytes were still surrounded by enveloping ovarian tissues. Oocytes were defolliculated on the day of surgery by treatment with collagenase (0.5 mg/mL Sigma Type I, or Boehringer Mannheim Type A, for 0.5-1 hr). Treated oocytes were vortexed to dislodge epithelia, washed repeatedly and stored in Barth's medium containing 88 mM NaCl, 1 mM KCl, 0.41 mM CaCl2, 0.33 mM Ca(NO3)2, 0.82 mM MgSO4, 2.4 mM NaHCO3, 5 mM HEPES, pH 7.4 adjusted with 0.1 mg/mL gentamycin sulphate.
Micro-injection of oocytes: Defolliculated oocytes were micro-injected using a Nanoject injection system (Drummond Scientific Co., Broomall, Pa.). Injection pipettes were beveled to minimize clogging. Tip diameter of injection pipettes was 15-35 μm. Oocytes were microinjected with approximately 50 nL 1:10 ratio mixtures of cRNAs for rBIIa and beta 1 respectively.
Electrophysiology: Membrane current responses were recorded in frog Ringer solution containing 115 mM NaCl, 2 mM KCl, 1.8 mM CaCl2, 5 mM HEPES, pH 7.4. Electrical recordings were made using a conventional two-electrode voltage clamp (Dagan TEV-200) over periods ranging between 1-7 days following injection. The recording chamber was a simple gravity fed flow-through chamber (volume […] depending on adjustment of aspirator). Oocytes were placed in the recording chamber, impaled with electrodes and continuously perfused (5-15 mL min^−1) with frog Ringer's solution. The tested compounds were applied by bath perfusion.
Voltage protocols for evoking sodium channel currents: The standard holding potential for whole oocyte clamp was −120 mV. Standard current-voltage relationships were elicited by 40 ms depolarizing steps starting from −60 mV to +50 mV in 10 mV increments. Peak currents were measured as the maximum negative current after depolarizing voltage steps. The voltage from maximum current response was noted and used for the next voltage protocol.
The purpose was to find compounds that are state dependent modifiers of neuronal sodium channels. Preferably, the compounds have a low affinity for the rested/closed state of the channel, but a high affinity for the inactivated state. The following voltage protocol was used to measure a compounds affinity for the inactivated state. Oocytes were held at a holding potential of −120 mV. At this membrane voltage, nearly all of the channels would be in the closed state. Then a 4 second depolarization was made to the voltage where the maximum current was elicited. At the end of this depolarization, nearly all the channels would be in the inactivated state. A 10 ms hyperpolarizing step was then made in order to remove some channels from the inactivated state. A final depolarizing test pulse was used to assay the sodium current after this prolonged depolarization (see analysis below). Sodium currents were measured at this test pulse before and after the application of the tested compound. Data was acquired using pClamp 8.0 software and analyzed with clampfit software (Axon instruments). […]

Compound `NC(=O)c1ccc(-c2ccc3ccccc3c2)nc1` [2-(2-naphthyl)pyridine-5-carboxamide, 2-(2-Naphthyl)pyridine-5-carboxamide] has a Ki of 28.1 µM.

`NC(=O)c1ccnc(-c2ccc(-c3ccccc3)cc2)c1` [2-(2-phenylphenyl)pyridine-4-carboxamide, 2-(4-Phenylphenyl)pyridine-4-carboxamide] showed a Ki of 24.9 µM.

`NC(=O)c1ccc(-c2ccc(-c3ccccc3)cc2)nc1` [2-(2-phenylphenyl)pyridine-5-carboxamide, 2-(4-Phenylphenyl)pyridine-5-carboxamide] showed a Ki of 40.7 µM.

`COc1ccc(-c2cc(C(N)=O)ccn2)cc1` [2-(4-Methoxyphenyl)pyridine-4-carboxamide] showed a Ki of 6.17 µM.

With `COc1ccc(-c2ccc(C(N)=O)cn2)cc1` [2-(4-Methoxyphenyl)pyridine-5-carboxamide] the Ki was 44.6 µM.

`NC(=O)c1ccnc(-c2ccc(Oc3ccccc3)cc2)c1` [2-(4-Phenoxyphenyl)pyridine-4-carboxamide] gave a Ki of 22.3 µM.

`NC(=O)c1ccc(-c2ccc(Oc3ccccc3)cc2)nc1` [2-(4-Phenoxyphenyl)pyridine-5-carboxamide] was tested, and the Ki was 14.6 µM.

`CSc1ccc(-c2ccc(C(N)=O)cn2)cc1` [2-(4-Thiomethylphenyl)pyridine-5-carboxamide] showed a Ki of 35.6 µM.

Compound `NC(=O)c1ccnc(-c2ccc(OC(F)(F)F)cc2)c1` [2-(4-Trifluoromethoxyphenyl)pyridine-4-carboxamide] has a Ki of 24.7 µM.

For `NC(=O)c1ccc(-c2ccc(OC(F)(F)F)cc2)nc1` [2-(4-Trifluoromethoxyphenyl)pyridine-5-carboxamide], the Ki was 34.2 µM.

Work on `NC(=O)c1ccc(-c2ccc(C(F)(F)F)cc2)nc1` [2-(4-Trifluoromethylphenyl)pyridine-5-carboxamide] yielded a Ki of 24.7 µM.

`CCOc1ccc(-c2cc(C(N)=O)ccn2)cc1` [2-(4-ethoxyphenyl)pyridine-4-carboxamide, 2-(4-Ethoxyphenyl)pyridine-4-carboxamide] gave a Ki of 14.7 µM.

`CCOc1ccc(-c2ccc(C(N)=O)cn2)cc1` [2-(4-ethoxyphenyl)pyridine-5-carboxamide, 2-(4-Ethoxyphenyl)pyridine-5-carboxamide] was tested, and the Ki was 29.7 µM.

Work on `CC(C)c1ccc(-c2cc(C(N)=O)ccn2)cc1` [2-(4-i-Propylphenyl)pyridine-4-carboxamide] yielded a Ki of 39.2 µM.

`CCCCc1ccc(-c2cc(C(N)=O)ccn2)cc1` [2-(4-n-Butylphenyl)pyridine-4-carboxamide] showed a Ki of 32.9 µM.

`CCCCc1ccc(-c2ccc(C(N)=O)cn2)cc1` [2-(4-n-Butylphenyl)pyridine-5-carboxamide] gave a Ki of 24.5 µM.

`CC(C)(C)c1ccc(-c2cc(C(N)=O)ccn2)cc1` [2-(4-tert-Butylphenyl)pyridine-4-carboxamide] was tested, and the Ki was 53.1 µM.

Compound `CC(C)(C)c1ccc(-c2ccc(C(N)=O)cn2)cc1` [2-(4-tert-Butylphenyl)pyridine-5-carboxamide] has a Ki of 32.3 µM.

In the case of `O=C(NCCN1CCCCC1)c1ccc(-c2ccc(Oc3ccc(F)cc3)cc2)nc1` [2-[4-(4-Fluorophenoxy)phenyl]pyridine 5-carboxylic acid 2-(N-piperidinyl)ethylamide], the Ki is reported as 0.95 µM.

`NC(=O)c1cccnc1-c1ccc(Oc2ccc(F)cc2)cc1` [2-[4-(4-Fluorophenoxy)phenyl]pyridine-3-carboxamide] showed a Ki of 13.6 µM.

Work on `NC(=O)c1ccnc(-c2ccc(Oc3ccc(F)cc3)cc2)c1` [2-[4-(4-Fluorophenoxy)phenyl]pyridine-4-carboxamide] yielded a Ki of 6.91 µM.

For `NC(=O)c1cncc(-c2ccc3ccccc3c2)c1` [5-(2-naphthyl)pyridine-3-carboxamide, 5-(2-Naphthyl)pyridine-3-carboxamide], the Ki was 35.1 µM.

For `COc1ccc(-c2cncc(C(N)=O)c2)cc1` [5-(4-Methoxyphenyl)pyridine-3-carboxamide], the Ki was 54.4 µM.

In the case of `NC(=O)c1cncc(-c2ccc(Oc3ccccc3)cc2)c1` [5-(4-Phenoxyphenyl)pyridine-3-carboxamide], the Ki is reported as 5.43 µM.

`CSc1ccc(-c2cncc(C(N)=O)c2)cc1` [5-(4-Thiomethylphenyl)pyridine-3-carboxamide] was tested, and the Ki was 29 µM.

Compound `NC(=O)c1cncc(-c2ccc(OC(F)(F)F)cc2)c1` [5-(4-Trifluoromethoxyphenyl)pyridine-3-carboxamide] has a Ki of 25 µM.

In the case of `NC(=O)c1cncc(-c2ccc(C(F)(F)F)cc2)c1` [5-(4-Trifluoromethylphenyl)pyridine-3-carboxamide], the Ki is reported as 23 µM.

For `CCOc1ccc(-c2cncc(C(N)=O)c2)cc1` [5-(4-ethoxyphenyl)pyridine-3-carboxamide, 5-(4-Ethoxyphenyl)pyridine-3-carboxamide], the Ki was 36.2 µM.

`CCCCc1ccc(-c2cncc(C(N)=O)c2)cc1` [5-(4-n-Butylphenyl)pyridine-3-carboxamide] was tested, and the Ki was 11.1 µM.

Compound `CC(C)(C)c1ccc(-c2cncc(C(N)=O)c2)cc1` [5-(4-tert-Butylphenyl)pyridine-3-carboxamide] has a Ki of 18.6 µM.

For `O=C(NCCN1CCCCC1)c1cncc(-c2ccc(Oc3ccc(F)cc3)cc2)c1` [5-[4-(4-fluorophenoxy)phenyl]pyridine 3-carboxylic acid 2-(N-piperidinyl)ethylamide], the Ki was 0.78 µM.
